This note sets out measurements from patent US20220306630A1, “AGONISTS OF ROR GAMMAt” (BRISTOL-MYERS SQUIBB COMPANY, priority 2019, published 2022).

This assay addresses T1, RORgT (Homo sapiens, UniProt P51449).
T1 construct: Gal4 (fusion partner); expressed in transfected cells; host or cells: engineered Jurkat cells (Jurkat pEx/Gal/hRORγ CLBD/HYG pG5luc/blast)
T1 sequence (P51449 267-516): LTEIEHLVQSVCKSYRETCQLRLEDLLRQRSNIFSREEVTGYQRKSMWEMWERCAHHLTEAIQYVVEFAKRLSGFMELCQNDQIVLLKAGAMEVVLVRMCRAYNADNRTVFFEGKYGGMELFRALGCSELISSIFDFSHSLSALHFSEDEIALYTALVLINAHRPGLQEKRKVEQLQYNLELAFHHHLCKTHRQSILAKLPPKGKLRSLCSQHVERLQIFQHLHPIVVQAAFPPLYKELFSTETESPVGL
The assay is described as follows: RORgT Gal4 Luciferase Reporter Gene Assay. In kind it is cell-based. The conditions noted are these: engineered Jurkat cells overexpressing RORgT (LBD or full length) with Gal4 Luc reporter; 18 hours at 37° C.; 40 μM to 0.67 nM; read-out: RORg_GAL4 EC50. Here is the method: The compound and the cells were incubated for 18 hours at 37° C. in a cell culture incubator. Cells were then lysed with 15 uL of Steady-Glo Luciferase Assay reagent (Promega EZ550), followed by centrifuging the assay plates at 1500 RPM for 1 minute. Subsequently, the plates were read on the Envision (PerkinElmer). The inhibition of constitutive activity of RORgT achieved by graded concentrations of compound was calculated as a percentage of the luminescence signal window reduction over a control compound.
On the technique in general: A reporter such as luciferase makes a cellular process visible.

Consider `C=C(C)c1cc(Oc2c(Cl)cc(NC(=O)CC3CCN(S(C)(=O)=O)CC3)cc2Cl)cnc1OC` [Example 73], for which the EC50 – broadly, the concentration needed to bring the measured effect to its halfway point – was 18 nM.

Consider `COc1ccc(Oc2c(Cl)ccc(C(=O)NCCc3nc4ccccc4s3)c2Cl)cc1C(C)C` [Example 178], for which the EC50 was determined as 336 nM.

Turning to `COc1ccc(Oc2c(Cl)cc(NC(=O)c3ccc(S(C)(=O)=O)cc3)cc2Cl)cc1C(C)C` [Example 293], the EC50 came out at 3270 nM.

Consider `COc1ccc(Oc2c(Cl)cc(NS(=O)(=O)C(C)C)cc2Cl)cc1C(C)C` [Example 305], for which the EC50 was 421 nM.

On to `COc1ccc(Oc2c(Cl)ccc(CNC(=O)Cc3ccc(S(C)(=O)=O)cc3)c2Cl)cc1C(C)C` [Example 54], for which the EC50 worked out at 34 nM.

On to `COc1ccc(Oc2c(Cl)ccc(C(=O)N3CCC4(CC3)CN(S(C)(=O)=O)C4)c2Cl)cc1C(C)C` [Example 109], for which the EC50 is 17 nM.

For `CS(=O)(=O)N1CC2(CCN(C(=O)c3ccc(Cl)c(Oc4cc(F)cc(CCC(F)(F)F)c4)c3Cl)CC2)C1` [Example 327], the EC50 was determined as 90 nM.

Consider `CCS(=O)(=O)N[C@@H]1CCN(CC(=O)Nc2cc(Cl)c(Oc3ccc(OC)c(C(C)C)c3)c(Cl)c2)C1` [Example 159], for which the EC50 is 377 nM.

For `COc1ccc(Oc2c(Cl)cc(NC(=O)Cc3cnc(S(C)(=O)=O)cn3)cc2Cl)cc1C(C)C` [Example 243], the EC50 was determined as 1280 nM.

Turning to `C=C(C)c1cc(F)cc(Oc2c(Cl)cc(NC(=O)CC3CCN(S(C)(=O)=O)CC3)cc2Cl)c1` [Example 358], the EC50 turned out to be 6.6 nM.

Consider `COc1ccc(Oc2c(Cl)ccc(C(=O)N3CCOCC3)c2Cl)cc1C(C)C` [Example 211], for which the EC50 is 46 nM.

Consider `COC(=O)c1cccc(C(=O)Nc2cc(Cl)c(Oc3ccc(OC)c(C(C)C)c3)c(Cl)c2)c1` [Example 288], for which the EC50 worked out at 1270 nM.

Regarding `COc1ncc(Oc2c(Cl)ccc(C(=O)NC(C)c3ccc(S(C)(=O)=O)cc3)c2Cl)cc1C(C)C` (centres unmarked) [Example 137], the EC50 was 14 nM.

For the compound `CC(C)(F)c1cc(Oc2c(Cl)cc(NC(=O)CC3CCN(S(C)(=O)=O)CC3)cc2Cl)cnc1OC(F)F` [Example 29, N-(3,5-dichloro-4-((6-(difluoromethoxy)-5-(2-fluoropropan-2-yl)pyridin-3-yl)oxy)phenyl)-2-(1-(methylsulfonyl)piperidin-4-yl)acetamide], the EC50 came out at 5.8 nM.

`COc1ccc(Oc2c(Cl)cc(NC(=O)Cc3cncc(S(C)(=O)=O)c3)cc2Cl)cc1C(C)C` [Example 242]: the EC50 worked out at 40 nM.

`CC(C)(F)c1cc(F)cc(Oc2c(Cl)ccc(C(=O)NCc3ccc(S(C)(=O)=O)cc3)c2Cl)c1` [Example 338]: the EC50 stood at 1.8 nM.

`COc1ccc(Oc2c(Cl)ccc(C(=O)N3CCC4(CC3)CN(C=O)C4)c2Cl)cc1C(C)C` [Example 341]: the EC50 was 75 nM.

As to `CC(C)c1cc(F)cc(Oc2c(Cl)cc(NC(=O)CC3CCN(S(N)(=O)=O)CC3)cc2Cl)c1` [Example 270], the EC50 was 22 nM.

Turning to `COc1ccc(Oc2c(Cl)cc(NC(=O)C3CCCCC3)cc2Cl)cc1C(C)C` [Example 287], the EC50 was 132 nM.

For the compound `COc1ccc(Oc2c(Cl)ccc(CNC(=O)c3ccc(S(N)(=O)=O)cc3)c2Cl)cc1C(C)C` [Example 60], the EC50 was 139 nM.

Consider `COc1ccc(Oc2c(Cl)cc(NC(=O)CCC(C)C)cc2Cl)cc1C(C)C` [Example 290], for which the EC50 worked out at 524 nM.

As to `CC(C)c1cc(F)cc(Oc2c(Cl)cc(NC(=O)Cc3ccc(S(C)(=O)=O)cc3)cc2Cl)c1` [Example 329], the EC50 was found to be 32 nM.

As to `COc1ccc(Oc2c(Cl)cc(NC(=O)CN3CC[C@H](NS(C)(=O)=O)C3)cc2Cl)cc1C(C)C` [Example 165], the EC50 turned out to be 182 nM.

For the compound `COc1ccc(Oc2c(Cl)ccc(CNC(=O)COC3CCN(S(C)(=O)=O)CC3)c2Cl)cc1C(C)C` [Example 188], the EC50 came to 383 nM.

Take `COc1ncc(Oc2c(Cl)cc(NC(=O)CC3CCN(S(C)(=O)=O)CC3)cc2Cl)cc1C(C)C(F)(F)F` (centres unmarked) [Example 134]: the EC50 was 3.2 nM.

Consider `COc1ccc(Oc2c(Cl)ccc(CNS(=O)(=O)C3CCN(S(C)(=O)=O)CC3)c2Cl)cc1C(C)C` [Example 57], for which the 50% effective concentration (EC50) was determined as 16 nM.
